Data: PubChem BioAssay (NCI)
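A five-concentration, 48-hour dose response in 96-well plates underlies each endpoint, interpolated linearly between surrounding concentrations. TGI: concentration producing complete growth inhibition.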

Legend:
Test in all cases: DTP human tumour cell line panel, 48 h
[1] = test system: TK-10 renal
[2] = test system: MALME-3M melanoma
[3] = test system: K-562 leukemia
[4] = test system: HOP-62 NSCLC
[5] = test system: UO-31 renal
[6] = test system: NCI-H522 lung
[7] = test system: MDA-MB-231 breast
[8] = test system: CCRF-CEM leukemia
[9] = test system: SF-268 CNS
[10] = test system: HS 578T breast
[11] = test system: UACC-257 melanoma
[12] = test system: NCI-H23 lung
[13] = test system: OVCAR-8 ovarian
[14] = test system: MDA-N
[15] = test system: DU-145 prostate
[16] = test system: SR leukemia
[17] = test system: UACC-62 melanoma
[18] = test system: IGROV1 ovarian
[19] = test system: SF-539 CNS
[20] = test system: SK-MEL-28 melanoma
[21] = test system: EKVX NSCLC
[22] = test system: SW-620 colon
[23] = test system: SK-MEL-5 melanoma
[24] = test system: HT29 colon
[25] = test system: OVCAR-4 ovarian
[26] = test system: NCI/ADR-RES ovarian
[27] = test system: HCC-2998 colon
[28] = test system: MOLT-4 leukemia
[29] = test system: NCI-H226 lung
[30] = test system: ACHN renal
[31] = test system: SK-MEL-2 melanoma
[32] = test system: SNB-19 CNS
[33] = test system: 786-0 renal
[34] = test system: HCT-116 colon
[35] = test system: LOX IMVI melanoma
[36] = test system: CAKI-1 renal
[37] = test system: HL-60(TB) leukemia
[38] = test system: T-47D breast
[39] = test system: SN12C renal
[40] = test system: MDA-MB-435
[41] = test system: U251 CNS
[42] = test system: HCT-15 colon
[43] = test system: SF-295 CNS
[44] = test system: RPMI-8226 leukemia
[45] = test system: NCI-H460 lung
[46] = test system: KM12 colon
[47] = test system: MCF7 breast
[48] = test system: OVCAR-3 ovarian
[49] = test system: BT-549 breast
[50] = test system: A549 NSCLC
[51] = test system: COLO 205 colon
[52] = test system: OVCAR-5 ovarian
[53] = test system: A498 renal
[54] = test system: SNB-75 CNS
[55] = test system: RXF 393 renal
[56] = test system: PC-3 prostate
[57] = test system: SK-OV-3 ovarian
[58] = test system: M14 melanoma

For `CN1C(=O)C2CCCC(=O)N2c2cccnc21` (stereo not drawn), the TGI [1] was greater than 100 µM, the TGI [2] was greater than 100 µM and the TGI [3] was greater than 100 µM. For the same molecule, the TGI [4] was greater than 100 µM, the TGI [5] was greater than 100 µM and the TGI [6] was greater than 100 µM. It also gave a TGI [7] greater than 100 µM, a TGI [8] greater than 100 µM and a TGI [9] greater than 100 µM. For the same molecule, the TGI [10] was greater than 100 µM, the TGI [11] was greater than 100 µM and the TGI [12] was greater than 100 µM. For the same molecule, the TGI [13] was greater than 100 µM, the TGI [14] was greater than 100 µM and the TGI [15] was greater than 100 µM. It also gave a TGI [16] greater than 100 µM, a TGI [17] greater than 100 µM and a TGI [18] greater than 100 µM. The TGI [19] was greater than 100 µM, the TGI [20] was greater than 100 µM and the TGI [21] was greater than 100 µM. The TGI [22] was greater than 100 µM, the TGI [23] was greater than 100 µM and the TGI [24] was greater than 100 µM. For the same molecule, the TGI [25] was greater than 100 µM, the TGI [26] was greater than 100 µM and the TGI [27] was greater than 100 µM. For the same molecule, the TGI [28] was greater than 100 µM, the TGI [29] was greater than 100 µM and the TGI [30] was greater than 100 µM. It also gave a TGI [31] greater than 100 µM, a TGI [32] greater than 100 µM and a TGI [33] greater than 100 µM. The TGI [34] was greater than 100 µM, the TGI [35] was greater than 100 µM and the TGI [36] was greater than 100 µM. It also gave a TGI [37] greater than 100 µM, a TGI [38] greater than 100 µM and a TGI [39] greater than 100 µM. The TGI [40] was greater than 100 µM, the TGI [41] was greater than 100 µM and the TGI [42] was greater than 100 µM. For the same molecule, the TGI [43] was greater than 100 µM, the TGI [44] was greater than 100 µM and the TGI [45] was greater than 100 µM. The TGI [46] was greater than 100 µM, the TGI [47] was greater than 100 µM and the TGI [48] was greater than 100 µM. For the same molecule, the TGI [49] was greater than 100 µM, the TGI [50] was greater than 100 µM and the TGI [51] was greater than 100 µM.
Work on `Cc1nc2ccc(F)cc2c2c1CCN2c1ccc(Cl)cc1` yielded a TGI [1] of 41.7 µM, a TGI [2] of 26.9 µM and a TGI [3] of 13.4 µM. For the same molecule, the TGI [4] was 56.4 µM, the TGI [52] was greater than 100 µM and the TGI [5] was 78.3 µM. It also gave a TGI [6] of 30.5 µM, a TGI [7] of 30.6 µM and a TGI [8] of 31 µM. For the same molecule, the TGI [9] was greater than 100 µM, the TGI [10] was 79.5 µM and the TGI [11] was 13.8 µM. It also gave a TGI [12] of 48.2 µM, a TGI [13] of 34.2 µM and a TGI [14] of 21.7 µM. For the same molecule, the TGI [15] was greater than 100 µM, the TGI [17] was 39.1 µM and the TGI [18] was 40 µM. It also gave a TGI [19] of 24.3 µM, a TGI [53] of 73.1 µM and a TGI [20] of 28 µM. For the same molecule, the TGI [22] was 54.8 µM, the TGI [54] was greater than 100 µM and the TGI [23] was 12.3 µM. The TGI [24] was 22.4 µM, the TGI [55] was 55.7 µM and the TGI [25] was greater than 100 µM. For the same molecule, the TGI [26] was 19.8 µM, the TGI [27] was 29.4 µM and the TGI [29] was 72.2 µM. For the same molecule, the TGI [30] was 96.2 µM, the TGI [31] was 41.4 µM and the TGI [32] was greater than 100 µM. For the same molecule, the TGI [33] was 34.9 µM, the TGI [34] was 36.2 µM and the TGI [35] was 33 µM. The TGI [56] was 22.7 µM, the TGI [36] was 79.6 µM and the TGI [37] was 17.7 µM. The TGI [39] was 97.6 µM, the TGI [40] was 33.5 µM and the TGI [41] was 71.8 µM. The TGI [42] was greater than 100 µM, the TGI [43] was greater than 100 µM and the TGI [45] was 47.7 µM. The TGI [57] was greater than 100 µM, the TGI [47] was 26.4 µM and the TGI [48] was greater than 100 µM. The TGI [49] was 67.2 µM, the TGI [50] was greater than 100 µM and the TGI [58] was 21.4 µM. The TGI [51] was 20.6 µM.
